Experimental data published in patent US10167262B2, “Herbicidal substituted 3-arylpyrazoles” (FMC CORPORATION, priority 2014, dated 2019).

Tests used:
Assay in all cases: Test C pre-/postemergence greenhouse test, plant response rating 0-100
Assay type in all cases: in vivo
[1] = system: Italian ryegrass (Lolium multiflorum)
Method in brief: (§1)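 Seeds were sown in a loam soil–sand blend and sprayed preemergence with test chemicals in a non-phytotoxic solvent mixture containing surfactant; postemergence plants in peat/vermiculite medium were treated at 2–18 cm (1- to 4-leaf stage). After 13 to 15 days in the greenhouse, injury was rated visually against untreated controls.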

[2] = system: giant foxtail (Setaria faberii); conditions: Postemergence; for Plant response rating, Foxtail, Giant: scale 0 to 100
Method in brief: as §1

[3] = system: winter wheat (Triticum aestivum)
Method in brief: as §1

[4] = system: velvetleaf (Abutilon theophrasti)
Method in brief: as §1

[5] = system: pigweed (Amaranthus retroflexus); conditions: Postemergence; for Plant response rating, Pigweed: scale 0 to 100
Method in brief: as §1

soybean (Glycine max) = system: soybean (Glycine max)
Method in brief: as §1

[6] = system: johnsongrass (Sorghum halepense); conditions: Postemergence; for Plant response rating, Johnsongrass: scale 0 to 100
Method in brief: as §1

[7] = system: large (Lg) crabgrass (Digitaria sanguinalis); conditions: Postemergence; for Plant response rating, Crabgrass, Large: scale 0 to 100
Method in brief: as §1

[8] = system: galium (catchweed bedstraw, Galium aparine); conditions: Postemergence; for Plant response rating, Galium: scale 0 to 100
Method in brief: as §1

corn (Zea mays) = conditions: Postemergence; for Plant response rating, Corn: scale 0 to 100
Method in brief: as §1

[9] = system: yellow nutsedge (Cyperus esculentus); conditions: Postemergence; for Plant response rating, Nutsedge, Yellow: scale 0 to 100
Method in brief: as §1

[10] = system: lambsquarters (Chenopodium album); conditions: Postemergence; for Plant response rating, Lambsquarters: scale 0 to 100
Method in brief: as §1

[11] = system: morningglory (Ipomoea coccinea); conditions: Postemergence; for Plant response rating, Morningglory: scale 0 to 100
Method in brief: as §1

[12] = Postemergence, 250 g ai/ha, scale 0 to 100
[13] = Postemergence, 500 g ai/ha, scale 0 to 100
[14] = Preemergence, 0 to 100 scale (0 no effect, 100 complete control), rate 500 g ai/ha per head r3, sub-head of this section not shown

O=C(c1ccccc1)c1cn(S(=O)(=O)C(F)(F)F)nc1-c1cc(Cl)cc(Cl)c1 [Compound 2]
35: Plant response rating, Velvetleaf [4, 14]
0: Plant response rating (0 to 100), Ryegrass, Italian ([1]; Postemergence, 62 g ai/ha) | Plant response rating (0 to 100), Ryegrass, Italian ([1]; Postemergence, 125 g ai/ha) | Plant response rating, Ryegrass, Italian [1, 12] | Plant response rating, Ryegrass, Italian [1, 13] | Plant response rating, Ryegrass, Italian [1, 14] | Plant response rating (0 to 100), Foxtail, Giant ([2]; 62 g ai/ha) | Plant response rating (0 to 100), Foxtail, Giant ([2]; 125 g ai/ha) | Plant response rating, Foxtail, Giant ([2]; 250 g ai/ha) | Plant response rating, Foxtail, Giant ([2]; 500 g ai/ha) | Plant response rating (0 to 100), Wheat ([3]; Postemergence, 62 g ai/ha) | Plant response rating (0 to 100), Wheat ([3]; Postemergence, 125 g ai/ha) | Plant response rating, Wheat [3, 12] | Plant response rating, Wheat [3, 13] | Plant response rating, Wheat ([3]; Preemergence, 0 to 100 scale (0 no effect, 100 complete control), rate 500 g ai/ha) | Plant response rating (0 to 100), Soybean (soybean (Glycine max); Postemergence, 62 g ai/ha) | Plant response rating (0 to 100), Soybean (soybean (Glycine max); Postemergence, 125 g ai/ha) | Plant response rating, Soybean (soybean (Glycine max); [12]) | Plant response rating, Soybean (soybean (Glycine max); [14]) | Plant response rating (0 to 100), Johnsongrass ([6]; 62 g ai/ha) | Plant response rating (0 to 100), Johnsongrass ([6]; 125 g ai/ha) | Plant response rating, Johnsongrass ([6]; 250 g ai/ha) | Plant response rating, Johnsongrass ([6]; 500 g ai/ha) | Plant response rating (0 to 100), Crabgrass, Large ([7]; 62 g ai/ha) | Plant response rating (0 to 100), Crabgrass, Large ([7]; 125 g ai/ha) | Plant response rating, Crabgrass, Large ([7]; 250 g ai/ha) | Plant response rating, Crabgrass, Large ([7]; 500 g ai/ha) | Plant response rating (0 to 100), Galium ([8]; 62 g ai/ha) | Plant response rating (0 to 100), Galium ([8]; 125 g ai/ha) | Plant response rating (0 to 100), Corn (corn (Zea mays); 62 g ai/ha) | Plant response rating (0 to 100), Corn (corn (Zea mays); 125 g ai/ha) | Plant response rating, Corn (corn (Zea mays); 250 g ai/ha) | Plant response rating, Corn (corn (Zea mays); 500 g ai/ha) | Plant response rating (0 to 100), Nutsedge, Yellow ([9]; 62 g ai/ha) | Plant response rating (0 to 100), Nutsedge, Yellow ([9]; 125 g ai/ha) | Plant response rating, Nutsedge, Yellow ([9]; 250 g ai/ha) | Plant response rating, Nutsedge, Yellow ([9]; 500 g ai/ha) | Plant response rating (0 to 100), Morningglory ([11]; 62 g ai/ha) | Plant response rating (0 to 100), Morningglory ([11]; 125 g ai/ha) | Plant response rating, Morningglory ([11]; 250 g ai/ha)
90: Plant response rating (0 to 100), Pigweed ([5]; 62 g ai/ha) | Plant response rating (0 to 100), Pigweed ([5]; 125 g ai/ha) | Plant response rating, Lambsquarters ([10]; 500 g ai/ha)
85: Plant response rating, Velvetleaf [4, 13] | Plant response rating (0 to 100), Lambsquarters ([10]; 62 g ai/ha) | Plant response rating (0 to 100), Lambsquarters ([10]; 125 g ai/ha) | Plant response rating, Lambsquarters ([10]; 250 g ai/ha)
75: Plant response rating (0 to 100), Velvetleaf ([4]; Postemergence, 62 g ai/ha) | Plant response rating (0 to 100), Velvetleaf ([4]; Postemergence, 125 g ai/ha)
10: Plant response rating, Morningglory ([11]; 500 g ai/ha)
80: Plant response rating, Velvetleaf [4, 12]
98: Plant response rating, Pigweed ([5]; 250 g ai/ha)
5: Plant response rating, Soybean (soybean (Glycine max); [13])
50: Plant response rating, Galium ([8]; 250 g ai/ha) | Plant response rating, Galium ([8]; 500 g ai/ha)
100: Plant response rating, Pigweed ([5]; 500 g ai/ha)

CC(C)n1cc(C(=O)c2ccccc2)c(-c2cc(Cl)cc(Cl)c2)n1 [Compound 44]
20: Plant response rating, Foxtail, Giant ([2]; 250 g ai/ha)
75: Plant response rating (0 to 100), Velvetleaf ([4]; Postemergence, 125 g ai/ha)
100: Plant response rating, Pigweed ([5]; 250 g ai/ha)
80: Plant response rating, Velvetleaf [4, 12]
0: Plant response rating (0 to 100), Ryegrass, Italian ([1]; Postemergence, 62 g ai/ha) | Plant response rating (0 to 100), Ryegrass, Italian ([1]; Postemergence, 125 g ai/ha) | Plant response rating, Ryegrass, Italian [1, 12] | Plant response rating (0 to 100), Foxtail, Giant ([2]; 31 g ai/ha) | Plant response rating (0 to 100), Foxtail, Giant ([2]; 62 g ai/ha) | Plant response rating (0 to 100), Foxtail, Giant ([2]; 125 g ai/ha) | Plant response rating (0 to 100), Wheat ([3]; Postemergence, 62 g ai/ha) | Plant response rating (0 to 100), Wheat ([3]; Postemergence, 125 g ai/ha) | Plant response rating, Wheat [3, 12] | Plant response rating (0 to 100), Johnsongrass ([6]; 62 g ai/ha) | Plant response rating (0 to 100), Johnsongrass ([6]; 125 g ai/ha) | Plant response rating, Johnsongrass ([6]; 250 g ai/ha) | Plant response rating (0 to 100), Crabgrass, Large ([7]; 31 g ai/ha) | Plant response rating (0 to 100), Galium ([8]; 31 g ai/ha) | Plant response rating (0 to 100), Galium ([8]; 62 g ai/ha) | Plant response rating (0 to 100), Galium ([8]; 125 g ai/ha) | Plant response rating, Galium ([8]; 250 g ai/ha) | Plant response rating (0 to 100), Corn (corn (Zea mays); 31 g ai/ha) | Plant response rating (0 to 100), Nutsedge, Yellow ([9]; 62 g ai/ha) | Plant response rating (0 to 100), Nutsedge, Yellow ([9]; 125 g ai/ha) | Plant response rating, Nutsedge, Yellow ([9]; 250 g ai/ha) | Plant response rating (0 to 100), Morningglory ([11]; 62 g ai/ha)
45: Plant response rating (0 to 100), Lambsquarters ([10]; 62 g ai/ha) | Plant response rating (0 to 100), Lambsquarters ([10]; 125 g ai/ha)
10: Plant response rating, Crabgrass, Large ([7]; 250 g ai/ha) | Plant response rating, Corn (corn (Zea mays); 250 g ai/ha)
60: Plant response rating (0 to 100), Velvetleaf ([4]; Postemergence, 62 g ai/ha) | Plant response rating (0 to 100), Pigweed ([5]; 62 g ai/ha) | Plant response rating (0 to 100), Pigweed ([5]; 125 g ai/ha)
5: Plant response rating (0 to 100), Soybean (soybean (Glycine max); Postemergence, 62 g ai/ha) | Plant response rating (0 to 100), Soybean (soybean (Glycine max); Postemergence, 125 g ai/ha) | Plant response rating, Soybean (soybean (Glycine max); [12]) | Plant response rating (0 to 100), Crabgrass, Large ([7]; 62 g ai/ha) | Plant response rating (0 to 100), Crabgrass, Large ([7]; 125 g ai/ha) | Plant response rating (0 to 100), Corn (corn (Zea mays); 62 g ai/ha) | Plant response rating (0 to 100), Corn (corn (Zea mays); 125 g ai/ha) | Plant response rating (0 to 100), Morningglory ([11]; 125 g ai/ha) | Plant response rating, Morningglory ([11]; 250 g ai/ha)
55: Plant response rating, Lambsquarters ([10]; 250 g ai/ha)
